{"source": "patent US7592160B2", "about": "“Processes for producing isomaltose and isomaltitol and use thereof” (Kabushiki Kaisha Hayashibara Seibutsu Kagaku Kenkyujo, priority 2001, dated 2009)", "key": {"[1]": {"test_system": "α-isomaltosylglucosaccharide-forming enzyme", "assay": "Transfer-acceptor specificity, enzyme of C9 strain", "type": "biochemical, Bacillus globisporus C9 strain", "parameters": "key: −: no saccharide-transferred product was detected through transfer reaction to acceptor; ±: a saccharide-transferred product was detected in an amount less than one percent through transfer reaction to acceptor; +: a saccharide-transferred product was detected in an amount over one percent but less than 10% through transfer reaction to acceptor; ++: a saccharide-transferred product was detected in an amount over ten percent through transfer reaction to acceptor", "settings": "acceptor 1.6%, PINE-DEX #100 donor 4%, one unit/g donor, 30° C., pH 6.0, 24 hours", "experimental": "(§1) Using various saccharides, it was tested whether the saccharides were used as transferring-acceptors for α-isomaltosylglucosaccharide-forming enzyme. A solution of D-glucose, D-xylose, L-xylose, D-galactose, D-fructose, D-mannose, D-arabinose, D-fucose, D-psicose, L-sorbose, L-rhamnose, methyl-α-glucopyranoside, methyl-β-glucopyranoside, N-acetyl-glucosamine, sorbitol, α,α-trehalose, isomaltose, isomaltotriose, cellobiose, gentibiose, glycerol, maltitol, lactose, sucrose, α-cyclodextrin, β-cyclodextrin, γ-cyclodextrin, or L-ascorbic acid was prepared. To each solution with a saccharide concentration of 1.6% was added “PINE-DEX #100”, a partial starch hydrolyzate, as a saccharide donor, to give a concentration of 4%, and admixed with one unit/g saccharide donor, d.s.b., of either of purified specimens of α-isomaltosylglucosaccharide-forming enzyme from Bacillus globisporus C9 strain obtained by the method in Experiment 4-2, Bacillus globisporus C11 strain obtained by the method in Experiment 7-2, Bacillus globisporus N75 strain obtained by the method in Experiment 11-2, or Arthrobacter globiformis A19 strain obtained by the method in Experiment 15-2, and incubated at 30° C. and pH 6.0 for 24 hours, except that pH 8.4 was used for the enzyme from Arthrobacter globiformis A19 strain. The reaction mixtures of the post-enzymatic reactions were analyzed on gas chromatography (abbreviated as “GLC” hereinafter) for monosaccharides and disaccharides as acceptors, and on HPLC for trisaccharides as acceptors to confirm whether these saccharides could be used as the transfer acceptors of the above enzymes. In the case of performing GLC, the following apparatuses and conditions were used: GLC apparatus, “GC-16A” commercialized by Shimadzu Corporation, Tokyo, Japan; column, a stainless-steel column, 3 mm in diameter and 2 m in length, packed with 2% “SILICONE OV-17/CHROMOSOLV W”, commercialized by GL Sciences Inc., Tokyo, Japan; carrier gas, nitrogen gas at a flow rate of 40 ml/min under temperature conditions of increasing from 160° C. to 320° C. at an increasing temperature rate of 7.5° C./min; and detection, a hydrogen flame ionization detector. In the case of performing HPLC analysis, the following apparatuses and conditions were used: HPLC apparatus, “CCPD” commercialized by Tosoh Corporation, Tokyo, Japan; column, “ODS-AQ-303” commercialized by YMC Co., Ltd., Tokyo, Japan; eluent, water at a flow rate of 0.5 ml/min; and detection, a differential refractometer."}, "[2]": {"test_system": "α-isomaltosylglucosaccharide-forming enzyme", "assay": "Transfer-acceptor specificity, enzyme of C11 strain", "type": "biochemical, Bacillus globisporus C11 strain", "parameters": "key: −: no saccharide-transferred product was detected through transfer reaction to acceptor; ±: a saccharide-transferred product was detected in an amount less than one percent through transfer reaction to acceptor; +: a saccharide-transferred product was detected in an amount over one percent but less than 10% through transfer reaction to acceptor; ++: a saccharide-transferred product was detected in an amount over ten percent through transfer reaction to acceptor", "settings": "acceptor 1.6%, PINE-DEX #100 donor 4%, one unit/g donor, 30° C., pH 6.0, 24 hours", "experimental": "as §1"}, "[3]": {"test_system": "α-isomaltosylglucosaccharide-forming enzyme", "assay": "Transfer-acceptor specificity, enzyme of N75 strain", "type": "biochemical, Bacillus globisporus N75 strain", "parameters": "key: −: no saccharide-transferred product was detected through transfer reaction to acceptor; ±: a saccharide-transferred product was detected in an amount less than one percent through transfer reaction to acceptor; +: a saccharide-transferred product was detected in an amount over one percent but less than 10% through transfer reaction to acceptor; ++: a saccharide-transferred product was detected in an amount over ten percent through transfer reaction to acceptor", "settings": "acceptor 1.6%, PINE-DEX #100 donor 4%, one unit/g donor, 30° C., pH 6.0, 24 hours", "experimental": "as §1"}, "[4]": {"test_system": "α-isomaltosylglucosaccharide-forming enzyme", "assay": "Transfer-acceptor specificity, enzyme of A19 strain", "type": "biochemical, Arthrobacter globiformis A19 strain", "settings": "acceptor 1.6%, PINE-DEX #100 donor 4%, one unit/g donor, 30° C., pH 8.4, 24 hours", "experimental": "as §1"}}, "data": [{"smiles": "O=C[C@@H](O)[C@H](O)[C@H](O)CO", "note": "[D-Arabinose, D-arabinose]", "values": [{"measurement": "Product of transferring reaction, Enzyme of C9 strain", "setting": "[1]", "result": "± (a saccharide-transferred product was detected in an amount less than one percent through transfer reaction to acceptor)"}, {"measurement": "Product of transferring reaction, Enzyme of C11 strain", "setting": "[2]", "result": "± (a saccharide-transferred product was detected in an amount less than one percent through transfer reaction to acceptor)"}, {"measurement": "Product of transferring reaction, Enzyme of N75 strain", "setting": "[3]", "result": "± (a saccharide-transferred product was detected in an amount less than one percent through transfer reaction to acceptor)"}, {"measurement": "Product of transferring reaction, Enzyme of A19 strain", "setting": "[4]", "result": "± (a saccharide-transferred product was detected in an amount less than one percent through transfer reaction to acceptor)"}]}, {"smiles": "O=C(CO)[C@@H](O)[C@H](O)[C@H](O)CO", "note": "[D-Fructose, D-fructose]", "values": [{"measurement": "Product of transferring reaction, Enzyme of C9 strain", "setting": "[1]", "result": "+ (a saccharide-transferred product was detected in an amount over one percent but less than 10% through transfer reaction to acceptor)"}, {"measurement": "Product of transferring reaction, Enzyme of C11 strain", "setting": "[2]", "result": "+ (a saccharide-transferred product was detected in an amount over one percent but less than 10% through transfer reaction to acceptor)"}, {"measurement": "Product of transferring reaction, Enzyme of N75 strain", "setting": "[3]", "result": "+ (a saccharide-transferred product was detected in an amount over one percent but less than 10% through transfer reaction to acceptor)"}, {"measurement": "Product of transferring reaction, Enzyme of A19 strain", "setting": "[4]", "result": "+ (a saccharide-transferred product was detected in an amount over one percent but less than 10% through transfer reaction to acceptor)"}]}, {"smiles": "C[C@@H](O)[C@H](O)[C@H](O)[C@@H](O)C=O", "note": "[D-Fucose, D-fucose]", "values": [{"measurement": "Product of transferring reaction, Enzyme of C9 strain", "setting": "[1]", "result": "+ (a saccharide-transferred product was detected in an amount over one percent but less than 10% through transfer reaction to acceptor)"}, {"measurement": "Product of transferring reaction, Enzyme of C11 strain", "setting": "[2]", "result": "+ (a saccharide-transferred product was detected in an amount over one percent but less than 10% through transfer reaction to acceptor)"}, {"measurement": "Product of transferring reaction, Enzyme of N75 strain", "setting": "[3]", "result": "+ (a saccharide-transferred product was detected in an amount over one percent but less than 10% through transfer reaction to acceptor)"}, {"measurement": "Product of transferring reaction, Enzyme of A19 strain", "setting": "[4]", "result": "± (a saccharide-transferred product was detected in an amount less than one percent through transfer reaction to acceptor)"}]}, {"smiles": "O=C[C@H](O)[C@@H](O)[C@@H](O)[C@H](O)CO", "note": "[D-Galactose, D-galactose]", "values": [{"measurement": "Product of transferring reaction, Enzyme of C9 strain", "setting": "[1]", "result": "+ (a saccharide-transferred product was detected in an amount over one percent but less than 10% through transfer reaction to acceptor)"}, {"measurement": "Product of transferring reaction, Enzyme of C11 strain", "setting": "[2]", "result": "+ (a saccharide-transferred product was detected in an amount over one percent but less than 10% through transfer reaction to acceptor)"}, {"measurement": "Product of transferring reaction, Enzyme of N75 strain", "setting": "[3]", "result": "+ (a saccharide-transferred product was detected in an amount over one percent but less than 10% through transfer reaction to acceptor)"}, {"measurement": "Product of transferring reaction, Enzyme of A19 strain", "setting": "[4]", "result": "± (a saccharide-transferred product was detected in an amount less than one percent through transfer reaction to acceptor)"}]}, {"smiles": "O=C[C@H](O)[C@@H](O)[C@H](O)[C@H](O)CO", "note": "[D-Glucose, D-glucose]", "values": [{"measurement": "Product of transferring reaction, Enzyme of C9 strain", "setting": "[1]", "result": "+ (a saccharide-transferred product was detected in an amount over one percent but less than 10% through transfer reaction to acceptor)"}, {"measurement": "Product of transferring reaction, Enzyme of C11 strain", "setting": "[2]", "result": "+ (a saccharide-transferred product was detected in an amount over one percent but less than 10% through transfer reaction to acceptor)"}, {"measurement": "Product of transferring reaction, Enzyme of N75 strain", "setting": "[3]", "result": "+ (a saccharide-transferred product was detected in an amount over one percent but less than 10% through transfer reaction to acceptor)"}, {"measurement": "Product of transferring reaction, Enzyme of A19 strain", "setting": "[4]", "result": "+ (a saccharide-transferred product was detected in an amount over one percent but less than 10% through transfer reaction to acceptor)"}]}, {"smiles": "O=C[C@@H](O)[C@@H](O)[C@H](O)[C@H](O)CO", "note": "[D-Mannose, D-mannose]", "values": [{"measurement": "Product of transferring reaction, Enzyme of C9 strain", "setting": "[1]", "result": "−"}, {"measurement": "Product of transferring reaction, Enzyme of C11 strain", "setting": "[2]", "result": "−"}, {"measurement": "Product of transferring reaction, Enzyme of N75 strain", "setting": "[3]", "result": "−"}, {"measurement": "Product of transferring reaction, Enzyme of A19 strain", "setting": "[4]", "result": "± (a saccharide-transferred product was detected in an amount less than one percent through transfer reaction to acceptor)"}]}, {"smiles": "O=C(CO)[C@H](O)[C@H](O)[C@H](O)CO", "note": "[D-Psicose, D-psicose]", "values": [{"measurement": "Product of transferring reaction, Enzyme of C9 strain", "setting": "[1]", "result": "+ (a saccharide-transferred product was detected in an amount over one percent but less than 10% through transfer reaction to acceptor)"}, {"measurement": "Product of transferring reaction, Enzyme of C11 strain", "setting": "[2]", "result": "+ (a saccharide-transferred product was detected in an amount over one percent but less than 10% through transfer reaction to acceptor)"}, {"measurement": "Product of transferring reaction, Enzyme of N75 strain", "setting": "[3]", "result": "+ (a saccharide-transferred product was detected in an amount over one percent but less than 10% through transfer reaction to acceptor)"}, {"measurement": "Product of transferring reaction, Enzyme of A19 strain", "setting": "[4]", "result": "+ (a saccharide-transferred product was detected in an amount over one percent but less than 10% through transfer reaction to acceptor)"}]}, {"smiles": "O=C[C@H](O)[C@@H](O)[C@H](O)CO", "note": "[D-Xylose, D-xylose]", "values": [{"measurement": "Product of transferring reaction, Enzyme of C9 strain", "setting": "[1]", "result": "++ (a saccharide-transferred product was detected in an amount over ten percent through transfer reaction to acceptor)"}, {"measurement": "Product of transferring reaction, Enzyme of C11 strain", "setting": "[2]", "result": "++ (a saccharide-transferred product was detected in an amount over ten percent through transfer reaction to acceptor)"}, {"measurement": "Product of transferring reaction, Enzyme of N75 strain", "setting": "[3]", "result": "++ (a saccharide-transferred product was detected in an amount over ten percent through transfer reaction to acceptor)"}, {"measurement": "Product of transferring reaction, Enzyme of A19 strain", "setting": "[4]", "result": "+ (a saccharide-transferred product was detected in an amount over one percent but less than 10% through transfer reaction to acceptor)"}]}, {"smiles": "OCC(O)CO", "note": "[Glycerol, glycerol]", "values": [{"measurement": "Product of transferring reaction, Enzyme of C9 strain", "setting": "[1]", "result": "+ (a saccharide-transferred product was detected in an amount over one percent but less than 10% through transfer reaction to acceptor)"}, {"measurement": "Product of transferring reaction, Enzyme of C11 strain", "setting": "[2]", "result": "+ (a saccharide-transferred product was detected in an amount over one percent but less than 10% through transfer reaction to acceptor)"}, {"measurement": "Product of transferring reaction, Enzyme of N75 strain", "setting": "[3]", "result": "+ (a saccharide-transferred product was detected in an amount over one percent but less than 10% through transfer reaction to acceptor)"}, {"measurement": "Product of transferring reaction, Enzyme of A19 strain", "setting": "[4]", "result": "+ (a saccharide-transferred product was detected in an amount over one percent but less than 10% through transfer reaction to acceptor)"}]}, {"smiles": "O=C1O[C@H]([C@@H](O)CO)C(O)=C1O", "note": "[L-Ascorbic acid, L-ascorbic acid]", "values": [{"measurement": "Product of transferring reaction, Enzyme of C9 strain", "setting": "[1]", "result": "+ (a saccharide-transferred product was detected in an amount over one percent but less than 10% through transfer reaction to acceptor)"}, {"measurement": "Product of transferring reaction, Enzyme of C11 strain", "setting": "[2]", "result": "+ (a saccharide-transferred product was detected in an amount over one percent but less than 10% through transfer reaction to acceptor)"}, {"measurement": "Product of transferring reaction, Enzyme of N75 strain", "setting": "[3]", "result": "+ (a saccharide-transferred product was detected in an amount over one percent but less than 10% through transfer reaction to acceptor)"}, {"measurement": "Product of transferring reaction, Enzyme of A19 strain", "setting": "[4]", "result": "+ (a saccharide-transferred product was detected in an amount over one percent but less than 10% through transfer reaction to acceptor)"}]}]}
